Measurements published in patent US20210038579A1, “Treatment Of Patients With Classic Fabry Disease” (Amicus Therapeutics, Inc., priority 2018, published 2021).
Where a chain is given by its changes, count along the chain named.

What was measured:
Experiment in all cases: HEK assay: α-Gal A activity in HEK-293 cell lysate with migalastat
Assay type in all cases: cell-based
[1] = target: T1, α-Gal A mutant form p.Pro205Thr (c.613 C > A) (Homo sapiens, UniProt P06280, P205T)
T1 construct: expressed in transfected cells; host or cells: HEK-293
T1 sequence (P06280 32-429 P205T): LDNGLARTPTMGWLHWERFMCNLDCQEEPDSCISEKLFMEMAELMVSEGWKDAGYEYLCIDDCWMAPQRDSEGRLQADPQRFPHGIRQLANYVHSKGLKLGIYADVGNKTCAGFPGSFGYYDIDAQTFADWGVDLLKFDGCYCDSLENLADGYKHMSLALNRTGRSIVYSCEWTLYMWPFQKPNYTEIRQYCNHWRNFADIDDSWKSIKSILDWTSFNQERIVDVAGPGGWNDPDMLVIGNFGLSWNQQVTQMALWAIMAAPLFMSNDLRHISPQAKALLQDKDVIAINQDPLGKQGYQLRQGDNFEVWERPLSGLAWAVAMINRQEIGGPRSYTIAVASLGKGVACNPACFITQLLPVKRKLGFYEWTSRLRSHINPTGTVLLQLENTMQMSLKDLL
Description: (§1) Such mutations are also referred to herein as “HEK assay amenable” mutations.
(§2) In this assay, cDNA constructs are created. The corresponding α-Gal A mutant forms are transiently expressed in HEK-293 cells. Cells are then incubated±migalastat (17 nM to 1 mM) for 4 to 5 days. After, α-Gal A levels are measured in cell lysates using a synthetic fluorogenic substrate (4-MU-α-Gal) or by western blot. This has been done for known disease-causing missense or small in-frame insertion/deletion mutations.

[2] = target: T2, α-Gal A mutant form p.Ile270Thr (c.809 T > C) (Homo sapiens, UniProt P06280, I270T)
T2 construct: expressed in transfected cells; host or cells: HEK-293
T2 sequence (P06280 32-429 I270T): T1 sequence (P06280 32-429 P205T) with T174P, I239T
Description: as §1, §2

[3] = target: T3, α-Gal A mutant form p.Pro293Thr (c.877 C > A) (Homo sapiens, UniProt P06280, P293T)
T3 construct: expressed in transfected cells; host or cells: HEK-293
T3 sequence (P06280 32-429 P293T): T1 sequence (P06280 32-429 P205T) with T174P, P262T
Description: as §1, §2

[4] = target: T4, α-Gal A mutant form p.Asp244Asn (c.730 G > A) (Homo sapiens, UniProt P06280, D244N)
T4 construct: expressed in transfected cells; host or cells: HEK-293
T4 sequence (P06280 32-429 D244N): T1 sequence (P06280 32-429 P205T) with T174P, D213N
Description: as §1, §2

[5] = target: T5, α-Gal A mutant form p.Arg356Trp (c.1066 C > T) (Homo sapiens, UniProt P06280, R356W)
T5 construct: expressed in transfected cells; host or cells: HEK-293
T5 sequence (P06280 32-429 R356W): T1 sequence (P06280 32-429 P205T) with T174P, R325W
Description: as §1, §2

[6] = +10 μM migalastat, HEK-293 cell lysate, mean ± SEM, n = 20
[7] = HEK293, 10 μM migalastat minus baseline, read-out: Absolute increase at 10 μM (% WT)

Q: Which results are given for `OC[C@H]1NC[C@H](O)[C@@H](O)[C@H]1O` [migalastat]?
A: α-Gal A activity at 10 μM (fold over baseline) ([1]; 10 μM migalastat): 3.41 fold over baseline; +Migalastat α-Gal A activity [1, 6]: 16371 ± 647 nmol/mg/h; +Migalastat α-Gal A activity % WT [1, 6]: 48.8 ± 2.2 % WT; activation at 10 µM [1, 7]: 34.4%; α-Gal A activity at 10 μM (fold over baseline) ([2]; 10 μM migalastat): 6.73 fold over baseline; +Migalastat α-Gal A activity [2, 6]: 12416 ± 377 nmol/mg/h; +Migalastat α-Gal A activity % WT [2, 6]: 42.8 ± 3.0 % WT; activation at 10 µM [2, 7]: 36.5%; α-Gal A activity at 10 μM (fold over baseline) ([3]; 10 μM migalastat): 19.60 fold over baseline; +Migalastat α-Gal A activity [3, 6]: 4488 ± 327 nmol/mg/h; +Migalastat α-Gal A activity % WT [3, 6]: 13.3 ± 1.1 % WT; activation at 10 µM [3, 7]: 12.7%; α-Gal A activity at 10 μM (fold over baseline) ([4]; 10 μM migalastat): 1.58 fold over baseline; +Migalastat α-Gal A activity [4, 6]: 16321 ± 402 nmol/mg/h; +Migalastat α-Gal A activity % WT [4, 6]: 48.7 ± 1.7 % WT; activation at 10 µM [4, 7]: 17.8%; α-Gal A activity at 10 μM (fold over baseline) ([5]; 10 μM migalastat): 4.42 fold over baseline; +Migalastat α-Gal A activity [5, 6]: 15570 ± 830 nmol/mg/h; +Migalastat α-Gal A activity % WT [5, 6]: 49.1 ± 2.6 % WT; activation at 10 µM [5, 7]: 38.1%
